Experimental data reported in the supplement of paper PMC11208160.

assay: recombinant barcode read abundance after kanamycin selection (control-corrected) (log10(CPM+1)); higher = more efficient recombination; sequences stand for … in AGTGCAGAGAAAATCGGCCAGTTTTCTCTGCCTGCAGTCCGCATGCCGT…AGATTTATGCAGCGGACTGCCTTTCTCCCAAAGTGATAAACCGGACAGTATCATGGACCGGTTTTCCCGGTAATCCGTATTTGCAAGGTTGGTTTCACT; site = the 11-nt target
Procedure, shortened: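 Oligos holding a promoter, target, barcode and the J23119-driven first 104 bases of the bridge RNA were Gibson-cloned into a vector that supplied the other 73 bp plus a T7-inducible recombinase. This library was co-electroporated with a donor plasmid into E. coli. Two replicates went on chloramphenicol/ampicillin LB agar (control) and two on chloramphenicol/ampicillin/kanamycin with 0.1 mM IPTG. Recombination efficiency is read from averaged, control-corrected barcode counts per million at recombinant junctions, reported as log10(CPM+1).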
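Further: IS621 recombinase and bridge RNA in Escherichia coli cells.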

Going from “ACCCAGCCTTGGGTTCTAACCTGTTGCTT (site ACCCAGCCTAA)” to “TAACCTGCTTGGGTTCTAACCTGTTGCCT (site TAACCTACTAG)”, the “recombinant barcode read abundance (log10)” value falls from 1.77 to 0.532.

“CCATCCACTTGGGTTCTAACCTGTTGCCT (site TCATCCGCTAG)” and “TCCAAAGCTTGGGTTCTAACCTGTTGCTA (site TCCAAAGCTTA)” are within 0.2 log units of each other in “recombinant barcode read abundance (log10)” value: 0.0523 for the first, 0.249 for the second.

“TCCCGAGCTTGGGTTCTAACCTGTTGCCT (site TCCCGACCTAG)” and “GCATGTCCTTGGGTTCTAACCTGTTGCAT (site GAATGTCCTAT)” are within 0.2 log units of each other in “recombinant barcode read abundance (log10)” value: 0 for the first, 0.128 for the second.

“CCGTAGCCTTGGGTTCTAACCTGTTGCCT (site CCGCAGCCTAG)” and “TCCAAAGCTTGGGTTCTAACCTGTTGCTA (site TCCCAAGCTTA)” are within 0.2 log units of each other in “recombinant barcode read abundance (log10)” value: 0.288 for the first, 0.141 for the second.

Going from “TCAGTATCTTGGGTTCTAACCTGTTGCCT (site TCAGCATCTAG)” to “AAGGGGTCTTGGGTTCTAACCTGTTGCCT (site TACGGGTCTAG)”, the “recombinant barcode read abundance (log10)” value falls from 0.533 to 0.112.

“TTGGGTGCTTGGGTTCTAACCTGTTGCAT (site TAGGCTGCTAT)” and “TAACATACTTGGGTTCTAACCTGTTGCAT (site TAACTTACTAT)” are within 0.2 log units of each other in “recombinant barcode read abundance (log10)” value: 0.16 for the first, 0.0391 for the second.

“AGTCAGTCTTGGGTTCTAACCTGTTGCGT (site AGTCATTCTAT)” and “GAGTCGTCTTGGGTTCTAACCTGTTGCCT (site GAGTCGCCTAG)” are within 0.2 log units of each other in “recombinant barcode read abundance (log10)” value: 0.0526 for the first, 0.193 for the second.

“TCCTTAGCTTGGGTTCTAACCTGTTGCCT (site TCATTCGCTAG)” and “AGTAGAACTTGGGTTCTAACCTGTTGCCT (site CGTAGAGCTAG)” are within 0.2 log units of each other in “recombinant barcode read abundance (log10)” value: 0.0127 for the first, 0.172 for the second.

“TCGGAGGCTTGGGTTCTAACCTGTTGCTG (site TCTGAGGCTCA)” and “CAGATTCCTTGGGTTCTAACCTGTTGCCT (site GAGATTCCTAG)” are within 0.2 log units of each other in “recombinant barcode read abundance (log10)” value: 0.374 for the first, 0.222 for the second.

Going from “GGGGCGTCTTGGGTTCTAACCTGTTGCTT (site GGGGCATCTAA)” to “ACATGTACTTGGGTTCTAACCTGTTGCTG (site ACATGTACTCG)”, the “recombinant barcode read abundance (log10)” value falls from 1.54 to 0.182.

“TAACCATCTTGGGTTCTAACCTGTTGCCT (site TACCCATCTAG)” and “ACGCAATCTTGGGTTCTAACCTGTTGCCT (site ACGCAGTCTAG)” are within 0.2 log units of each other in “recombinant barcode read abundance (log10)” value: 0.0574 for the first, 0.131 for the second.

Compared with “CAGAATCCTTGGGTTCTAACCTGTTGCGG (site TCTCTCGCTAG)”, “CATATAGCTTGGGTTCTAACCTGTTGCAT (site GATCTAGCTAT)” is higher in “recombinant barcode read abundance (log10)” value: 0.0949 for the first, 0.667 for the second.

Compared with “GCAGCTACTTGGGTTCTAACCTGTTGCTG (site ACAGCTACTAA)”, “GAGTTAACTTGGGTTCTAACCTGTTGCCG (site GAGTTAACTCG)” is higher in “recombinant barcode read abundance (log10)” value: 0.0295 for the first, 0.262 for the second.

“TGTCAGGCTTGGGTTCTAACCTGTTGCCT (site TGTCAGGCTAG)” and “TCACGTCCTTGGGTTCTAACCTGTTGCTT (site TCACGTCCTAA)” are within 0.2 log units of each other in “recombinant barcode read abundance (log10)” value: 0.0749 for the first, 0.137 for the second.

“GTGTACCCTTGGGTTCTAACCTGTTGCGA (site GTGTACCCTGC)” and “TACCGGACTTGGGTTCTAACCTGTTGCGT (site TACCGGCCTAA)” are within 0.2 log units of each other in “recombinant barcode read abundance (log10)” value: 0.0937 for the first, 0.0831 for the second.

Going from “AGGTCCTCTTGGGTTCTAACCTGTTGCGT (site AGGTCCTCTAC)” to “TGGTCCGCTTGGGTTCTAACCTGTTGCCT (site TGGTACGCTAG)”, the “recombinant barcode read abundance (log10)” value falls from 2.67 to 0.257.

Compared with “TTCCGAGCTTGGGTTCTAACCTGTTGCGG (site TTCCGAGCTCC)”, “GGAAGCCCTTGGGTTCTAACCTGTTGCTA (site AACTAAGCTAG)” is lower in “recombinant barcode read abundance (log10)” value: 1.01 for the first, 0.0242 for the second.

“AGATATACTTGGGTTCTAACCTGTTGCTT (site CACCTGTCTCC)” and “CTCTTGTCTTGGGTTCTAACCTGTTGCCA (site CTCTTGTCTTG)” are within 0.2 log units of each other in “recombinant barcode read abundance (log10)” value: 0.0796 for the first, 0 for the second.

“TTGGGCACTTGGGTTCTAACCTGTTGCCT (site TTGGACACTAG)” and “CTCTATCCTTGGGTTCTAACCTGTTGCGT (site CTCTAGCCTAC)” are within 0.2 log units of each other in “recombinant barcode read abundance (log10)” value: 0.196 for the first, 0.376 for the second.

First: TAGGTATCTTGGGTTCTAACCTGTTGCAG (site TAGGTATCTCT)
Second: TCCGAGCCTTGGGTTCTAACCTGTTGCAT (site TCCGAGCCTAC)
The “recombinant barcode read abundance (log10)” value of the first is higher: 2.01 for the first, 0.228 for the second.

Compared with “GGGAAGACTTGGGTTCTAACCTGTTGCCT (site GGAAAGACTAG)”, “TCGCACCCTTGGGTTCTAACCTGTTGCGA (site TCGCACCCTTC)” is lower in “recombinant barcode read abundance (log10)” value: 1.56 for the first, 0.571 for the second.

Compared with “CTAACCTCTTGGGTTCTAACCTGTTGCTC (site CTAACCTCTGA)”, “CTCAGGTCTTGGGTTCTAACCTGTTGCCT (site CTCAGGTCTAG)” is lower in “recombinant barcode read abundance (log10)” value: 1.66 for the first, 1.01 for the second.

Compared with “GAAGCTACTTGGGTTCTAACCTGTTGCGT (site GATGCTACTCC)”, “AGGGATACTTGGGTTCTAACCTGTTGCTT (site AGGGATACTAA)” is higher in “recombinant barcode read abundance (log10)” value: 0.0227 for the first, 1.42 for the second.

“AGGTTTGCTTGGGTTCTAACCTGTTGCTT (site GTCACAACTCG)” and “CCTATGTCTTGGGTTCTAACCTGTTGCTA (site ACTATGTCTTG)” are within 0.2 log units of each other in “recombinant barcode read abundance (log10)” value: 0.101 for the first, 0.0985 for the second.

Going from “CTCCGCCCTTGGGTTCTAACCTGTTGCCT (site CTCCGCCCTAG)” to “ACTGATCCTTGGGTTCTAACCTGTTGCAT (site ACTGATCCTAT)”, the “recombinant barcode read abundance (log10)” value rises from 0.776 to 2.35.

“CAAAGGCCTTGGGTTCTAACCTGTTGCCT (site CAAAGGCCTAG)” and “AGCATCTCTTGGGTTCTAACCTGTTGCCG (site CCTTGTACTAA)” are within 0.2 log units of each other in “recombinant barcode read abundance (log10)” value: 0.173 for the first, 0.0503 for the second.

“AGCGTCGCTTGGGTTCTAACCTGTTGCCT (site TGCGTCGCTAG)” and “CTAACCACTTGGGTTCTAACCTGTTGCCA (site CTAACCACTTG)” are within 0.2 log units of each other in “recombinant barcode read abundance (log10)” value: 0.16 for the first, 0.329 for the second.

“AGCCCTCCTTGGGTTCTAACCTGTTGCTC (site AGCCCTCCTAA)” and “TCGCGGCCTTGGGTTCTAACCTGTTGCCT (site CCGCGGCCTAG)” are within 0.2 log units of each other in “recombinant barcode read abundance (log10)” value: 0.01 for the first, 0.105 for the second.

Compared with “GCGTACTCTTGGGTTCTAACCTGTTGCCT (site GCGTACTCTAG)”, “TCTTATACTTGGGTTCTAACCTGTTGCGT (site TCTTATACTAT)” is lower in “recombinant barcode read abundance (log10)” value: 2.02 for the first, 0 for the second.

First: TATCCATCTTGGGTTCTAACCTGTTGCCT (site TAACCATCTAG)
Second: CCTAGAGCTTGGGTTCTAACCTGTTGCCT (site CCTAGAGCTAG)
The “recombinant barcode read abundance (log10)” value of the first is lower: 0.0695 for the first, 0.694 for the second.

“CGCCTCCCTTGGGTTCTAACCTGTTGCAT (site CGCCTCCCTAT)” and “AGGGCATCTTGGGTTCTAACCTGTTGCCT (site AGGGCGTCTCG)” are within 0.2 log units of each other in “recombinant barcode read abundance (log10)” value: 0.159 for the first, 0.245 for the second.

Going from “AGGCGCCCTTGGGTTCTAACCTGTTGCAC (site AGGCGCCCTTT)” to “TAGCGGTCTTGGGTTCTAACCTGTTGCCT (site TAGCGGTCTAG)”, the “recombinant barcode read abundance (log10)” value rises from 0.0439 to 1.46.

“CTCACGACTTGGGTTCTAACCTGTTGCAG (site GAATGAGCTAG)” and “ATCTGTTCTTGGGTTCTAACCTGTTGCCT (site ACCTGTGCTAG)” are within 0.2 log units of each other in “recombinant barcode read abundance (log10)” value: 0.245 for the first, 0.108 for the second.

Compared with “CTACCTCCTTGGGTTCTAACCTGTTGCGT (site CTACCTCCTAC)”, “TCTTGTTCTTGGGTTCTAACCTGTTGCCT (site CCTTGTTCTAG)” is lower in “recombinant barcode read abundance (log10)” value: 1.16 for the first, 0.179 for the second.

First: TACATCCCTTGGGTTCTAACCTGTTGCCC (site TACATCCCTAG)
Second: ATGCAAGCTTGGGTTCTAACCTGTTGCCT (site ATGCAAACTAG)
The “recombinant barcode read abundance (log10)” value of the first is lower: 0.41 for the first, 0.898 for the second.

Going from “CTCACACCTTGGGTTCTAACCTGTTGCTT (site CTCACACCTAA)” to “AGAACTCCTTGGGTTCTAACCTGTTGCGA (site AGAACTCCTTC)”, the “recombinant barcode read abundance (log10)” value rises from 0.328 to 1.03.

Going from “GATCCTACTTGGGTTCTAACCTGTTGCCT (site GATCCTACTAG)” to “TGCCGAACTTGGGTTCTAACCTGTTGCCT (site CGCCGAACTAG)”, the “recombinant barcode read abundance (log10)” value falls from 1.14 to 0.16.

“TACCCATCTTGGGTTCTAACCTGTTGCCT (site TAGCCATCTAG)” and “CAAATGTCTTGGGTTCTAACCTGTTGCCT (site AAAATGCCTAG)” are within 0.2 log units of each other in “recombinant barcode read abundance (log10)” value: 0.106 for the first, 0.299 for the second.

Compared with “TCCAAGACTTGGGTTCTAACCTGTTGCAG (site TCCAAGACTCT)”, “TAGAATCCTTGGGTTCTAACCTGTTGCAG (site TAGAATCCTTT)” is lower in “recombinant barcode read abundance (log10)” value: 1.72 for the first, 0.072 for the second.

Compared with “TGAGAACCTTGGGTTCTAACCTGTTGCCT (site TGAGAACCTAG)”, “CATGTGTCTTGGGTTCTAACCTGTTGCGG (site CATGTGTCTCC)” is higher in “recombinant barcode read abundance (log10)” value: 2.33 for the first, 2.69 for the second.

“CACTCCTCTTGGGTTCTAACCTGTTGCTT (site CTCTGCTCTAA)” and “ATATGTCCTTGGGTTCTAACCTGTTGCAA (site GGTGCATCTAA)” are within 0.2 log units of each other in “recombinant barcode read abundance (log10)” value: 0.0209 for the first, 0.0198 for the second.

“TAATCCTCTTGGGTTCTAACCTGTTGCCT (site GAATCCTCTAG)” and “ACACCGTCTTGGGTTCTAACCTGTTGCCT (site AGACCTTCTAG)” are within 0.2 log units of each other in “recombinant barcode read abundance (log10)” value: 0.0754 for the first, 0 for the second.

Going from “AGTCGATCTTGGGTTCTAACCTGTTGCTT (site ACTCGATCTAG)” to “GGGGACCCTTGGGTTCTAACCTGTTGCGG (site GGGGACCCTAC)”, the “recombinant barcode read abundance (log10)” value rises from 0.0101 to 2.34.
